PubChem BioAssay (NCI)
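Interpolation was linear, between the two tested concentrations surrounding the appropriate level; five concentrations were tested over 48 hours in 96-well plates. Abbreviation: GI50, concentration required for 50% inhibition of growth. The concentration for full growth arrest is given as TGI.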

Assays:
Assay in all cases: inhibition of tumour cell growth, NCI panel, 48 h
IGROV1 ovarian = tested on: IGROV1 ovarian
LOX IMVI melanoma = tested on: LOX IMVI melanoma
EKVX NSCLC = tested on: EKVX NSCLC
NCI-H522 lung = tested on: NCI-H522 lung
SK-MEL-5 melanoma = tested on: SK-MEL-5 melanoma
RPMI-8226 leukemia = tested on: RPMI-8226 leukemia
CCRF-CEM leukemia = tested on: CCRF-CEM leukemia
HL-60(TB) leukemia = tested on: HL-60(TB) leukemia
OVCAR-3 ovarian = tested on: OVCAR-3 ovarian
HOP-92 NSCLC = tested on: HOP-92 NSCLC
NCI/ADR-RES ovarian = tested on: NCI/ADR-RES ovarian
PC-3 prostate = tested on: PC-3 prostate
DU-145 prostate = tested on: DU-145 prostate
786-0 renal = tested on: 786-0 renal
HCC-2998 colon = tested on: HCC-2998 colon
SW-620 colon = tested on: SW-620 colon
K-562 leukemia = tested on: K-562 leukemia
A498 renal = tested on: A498 renal
OVCAR-5 ovarian = tested on: OVCAR-5 ovarian
NCI-H23 lung = tested on: NCI-H23 lung
SK-MEL-2 melanoma = tested on: SK-MEL-2 melanoma
SF-268 CNS = tested on: SF-268 CNS
U251 CNS = tested on: U251 CNS
T-47D breast = tested on: T-47D breast
NCI-H460 lung = tested on: NCI-H460 lung
OVCAR-8 ovarian = tested on: OVCAR-8 ovarian
MDA-MB-231 breast = tested on: MDA-MB-231 breast
HT29 colon = tested on: HT29 colon
HS 578T breast = tested on: HS 578T breast
SF-295 CNS = tested on: SF-295 CNS
HCT-116 colon = tested on: HCT-116 colon
SN12C renal = tested on: SN12C renal
SF-539 CNS = tested on: SF-539 CNS
UACC-62 melanoma = tested on: UACC-62 melanoma
OVCAR-4 ovarian = tested on: OVCAR-4 ovarian
UACC-257 melanoma = tested on: UACC-257 melanoma
SK-MEL-28 melanoma = tested on: SK-MEL-28 melanoma
SNB-75 CNS = tested on: SNB-75 CNS
UO-31 renal = tested on: UO-31 renal
MCF7 breast = tested on: MCF7 breast
SNB-19 CNS = tested on: SNB-19 CNS
ACHN renal = tested on: ACHN renal
RXF 393 renal = tested on: RXF 393 renal
HCT-15 colon = tested on: HCT-15 colon
TK-10 renal = tested on: TK-10 renal
MDA-MB-435 = tested on: MDA-MB-435
M14 melanoma = tested on: M14 melanoma
SK-OV-3 ovarian = tested on: SK-OV-3 ovarian
KM12 colon = tested on: KM12 colon
COLO 205 colon = tested on: COLO 205 colon
SR leukemia = tested on: SR leukemia
MOLT-4 leukemia = tested on: MOLT-4 leukemia
MALME-3M melanoma = tested on: MALME-3M melanoma
NCI-H226 lung = tested on: NCI-H226 lung
A549 NSCLC = tested on: A549 NSCLC
HOP-62 NSCLC = tested on: HOP-62 NSCLC
BT-549 breast = tested on: BT-549 breast

Nc1c(F)cc(-c2nc3cc(F)ccc3[se]2)cc1Br
GI50 (IGROV1 ovarian): 0.0127 µM
TGI (IGROV1 ovarian): 27.4 µM
GI50 (LOX IMVI melanoma): 14.1 µM
TGI (LOX IMVI melanoma): > 100 µM
GI50 (EKVX NSCLC): 0.209 µM
TGI (EKVX NSCLC): > 100 µM
GI50 (NCI-H522 lung): 10.6 µM
TGI (NCI-H522 lung): > 100 µM
GI50 (SK-MEL-5 melanoma): 0.104 µM
TGI (SK-MEL-5 melanoma): > 100 µM
TGI (RPMI-8226 leukemia): > 100 µM
GI50 (CCRF-CEM leukemia): > 100 µM
TGI (CCRF-CEM leukemia): > 100 µM
GI50 (HL-60(TB) leukemia): > 100 µM
TGI (HL-60(TB) leukemia): > 100 µM
GI50 (OVCAR-3 ovarian): 0.123 µM
TGI (OVCAR-3 ovarian): > 100 µM
GI50 (HOP-92 NSCLC): 0.526 µM
TGI (HOP-92 NSCLC): 19.4 µM
GI50 (NCI/ADR-RES ovarian): 38.9 µM
TGI (NCI/ADR-RES ovarian): > 100 µM
GI50 (PC-3 prostate): 14.5 µM
TGI (PC-3 prostate): > 100 µM
GI50 (DU-145 prostate): > 54.8 µM
TGI (DU-145 prostate): > 100 µM
GI50 (786-0 renal): 10.6 µM
TGI (786-0 renal): 50.4 µM
GI50 (HCC-2998 colon): 0.0477 µM
TGI (HCC-2998 colon): 0.35 µM
GI50 (SW-620 colon): > 54.5 µM
TGI (SW-620 colon): > 100 µM
GI50 (K-562 leukemia): 49.2 µM
TGI (K-562 leukemia): > 100 µM
GI50 (A498 renal): 5.4 µM
TGI (A498 renal): 36.9 µM
GI50 (OVCAR-5 ovarian): 0.067 µM
TGI (OVCAR-5 ovarian): > 33.5 µM
GI50 (NCI-H23 lung): 0.0414 µM
TGI (NCI-H23 lung): 20 µM
GI50 (SK-MEL-2 melanoma): 75 µM
TGI (SK-MEL-2 melanoma): > 100 µM
GI50 (SF-268 CNS): 29.4 µM
TGI (SF-268 CNS): > 100 µM
GI50 (U251 CNS): 12 µM
TGI (U251 CNS): 70.5 µM
GI50 (T-47D breast): 0.0578 µM
TGI (T-47D breast): 0.631 µM
GI50 (NCI-H460 lung): 0.0189 µM
TGI (NCI-H460 lung): > 35.2 µM
GI50 (OVCAR-8 ovarian): 42.1 µM
TGI (OVCAR-8 ovarian): > 100 µM
GI50 (MDA-MB-231 breast): 0.306 µM
TGI (MDA-MB-231 breast): 7.79 µM
GI50 (HT29 colon): 0.0651 µM
GI50 (HS 578T breast): 44.7 µM
TGI (HS 578T breast): > 100 µM
GI50 (SF-295 CNS): 12.7 µM
TGI (SF-295 CNS): > 100 µM
GI50 (HCT-116 colon): 0.025 µM
TGI (HCT-116 colon): 13 µM
GI50 (SN12C renal): 17.7 µM
TGI (SN12C renal): > 100 µM
GI50 (SF-539 CNS): 11.4 µM
TGI (SF-539 CNS): 32.4 µM
GI50 (UACC-62 melanoma): 1.06 µM
TGI (UACC-62 melanoma): > 100 µM
GI50 (OVCAR-4 ovarian): 0.15 µM
TGI (OVCAR-4 ovarian): > 100 µM
GI50 (UACC-257 melanoma): > 100 µM
TGI (UACC-257 melanoma): > 100 µM
GI50 (SK-MEL-28 melanoma): > 100 µM
TGI (SK-MEL-28 melanoma): > 100 µM
GI50 (SNB-75 CNS): 3.23 µM
TGI (SNB-75 CNS): > 63 µM
GI50 (UO-31 renal): 1.43 µM
TGI (UO-31 renal): > 79 µM
GI50 (MCF7 breast): 0.0267 µM
TGI (MCF7 breast): > 100 µM
GI50 (SNB-19 CNS): 27.8 µM
TGI (SNB-19 CNS): > 100 µM
GI50 (ACHN renal): 2 µM
TGI (ACHN renal): > 100 µM
GI50 (RXF 393 renal): 2.28 µM
TGI (RXF 393 renal): 42.8 µM
GI50 (HCT-15 colon): 0.0476 µM
TGI (HCT-15 colon): > 100 µM
GI50 (TK-10 renal): 0.17 µM
TGI (TK-10 renal): 0.61 µM
GI50 (MDA-MB-435): 14.6 µM
TGI (MDA-MB-435): > 100 µM
GI50 (M14 melanoma): 16.5 µM
TGI (M14 melanoma): > 100 µM
GI50 (SK-OV-3 ovarian): 2.31 µM
TGI (SK-OV-3 ovarian): 39.3 µM
GI50 (KM12 colon): 0.15 µM
TGI (KM12 colon): > 100 µM
GI50 (COLO 205 colon): 0.0536 µM
TGI (COLO 205 colon): > 100 µM
GI50 (SR leukemia): < 0.0162 µM
TGI (SR leukemia): > 100 µM
GI50 (MOLT-4 leukemia): > 46.5 µM
TGI (MOLT-4 leukemia): > 100 µM
GI50 (MALME-3M melanoma): 25.3 µM
TGI (MALME-3M melanoma): > 100 µM
GI50 (NCI-H226 lung): 0.0484 µM
TGI (NCI-H226 lung): 2.06 µM
GI50 (A549 NSCLC): 0.137 µM
TGI (A549 NSCLC): > 100 µM
GI50 (HOP-62 NSCLC): 1.83 µM
TGI (HOP-62 NSCLC): > 100 µM
GI50 (BT-549 breast): 0.334 µM
TGI (BT-549 breast): > 27.8 µM
